Values quoted from earlier work as cited in US4537898A, “Liquid formulations of dihydropyridines” (priority 1983, dated 1985).

Structure (SMILES): COCCOC(=O)C1=C(C)NC(C)=C(C(=O)OC(C)C)C1c1cccc([N+](=O)[O-])c1 (stereo not shown) [nimodipine, Nimodipine]
- solubility in water: 0.2 mg per 100 ml
